Read-outs that look alike come from different tables or passages of the source.
Molecular target: β-galactosidase (Escherichia coli, UniProt P00722)
Assay: Kinetics of β-galactosidase with p-NPBG, with and without diethanolamine
Type: biochemical
Conditions: for Km: read-out: Michaelis constant (Km) of β-galactosidase for p-NPBG
Method: β-galactosidase has a pH optimum of 7.4 for p-nitrophenyl-β-D-galactoside (p-NPBG), although in a single assay format using normal substrate concentrations (up to approximately 5 mM), the pH can be raised to 8.6 with only a slight loss (approximately 20%) of activity. […] We have also found, however, that by increasing the concentration of p-NPBG at pH 8.6, even in the presence of about 1M diethanolamine, substantial activity of β-galactosidase can be achieved. Substantial activity of β-galactosidase is also obtained if the same reaction medium is used but with p-NPBG replaced by o-NPBG.

Chain of β-galactosidase (P00722 2-1024): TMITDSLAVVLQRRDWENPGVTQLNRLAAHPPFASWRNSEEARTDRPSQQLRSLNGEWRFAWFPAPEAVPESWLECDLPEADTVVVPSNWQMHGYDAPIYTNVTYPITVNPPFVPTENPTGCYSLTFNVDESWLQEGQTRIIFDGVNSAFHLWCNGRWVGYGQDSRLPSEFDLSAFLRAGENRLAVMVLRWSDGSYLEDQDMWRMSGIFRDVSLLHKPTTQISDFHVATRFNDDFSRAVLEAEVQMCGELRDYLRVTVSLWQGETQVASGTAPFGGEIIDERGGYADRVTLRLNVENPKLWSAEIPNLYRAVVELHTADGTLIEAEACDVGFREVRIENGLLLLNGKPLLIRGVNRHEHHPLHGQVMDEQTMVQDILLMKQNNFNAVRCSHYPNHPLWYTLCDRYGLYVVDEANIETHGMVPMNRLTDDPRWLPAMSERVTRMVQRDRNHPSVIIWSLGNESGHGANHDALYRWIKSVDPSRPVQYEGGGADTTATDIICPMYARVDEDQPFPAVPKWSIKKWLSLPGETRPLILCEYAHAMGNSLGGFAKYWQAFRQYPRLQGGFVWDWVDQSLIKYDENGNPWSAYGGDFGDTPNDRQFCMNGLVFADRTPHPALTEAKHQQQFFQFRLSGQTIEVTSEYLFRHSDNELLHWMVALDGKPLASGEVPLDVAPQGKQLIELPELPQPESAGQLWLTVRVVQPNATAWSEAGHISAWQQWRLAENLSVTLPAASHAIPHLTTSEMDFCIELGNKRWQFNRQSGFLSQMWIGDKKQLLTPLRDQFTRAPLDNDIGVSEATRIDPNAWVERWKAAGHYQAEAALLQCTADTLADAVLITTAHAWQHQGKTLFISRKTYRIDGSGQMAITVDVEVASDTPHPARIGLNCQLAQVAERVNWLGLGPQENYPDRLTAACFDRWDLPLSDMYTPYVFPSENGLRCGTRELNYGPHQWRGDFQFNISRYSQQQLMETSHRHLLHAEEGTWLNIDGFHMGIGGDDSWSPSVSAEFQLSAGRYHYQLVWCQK

SMILES: OCCNCCO [diethanolamine]
- activity of β-galactosidase (inhibition by diethanolamine) (about 1M diethanolamine, pH 8.6, p-NPBG at normal substrate concentrations (up to approximately 5 mM)): almost totally abolished

SMILES: O=[N+]([O-])c1ccc(O[C@@H]2O[C@H](CO)[C@H](O)[C@H](O)[C@H]2O)cc1 [p-NPBG, p-nitrophenyl-β-D-galactoside]
- Km (in the presence of 1M diethanolamine (competitive inhibition)): 21 mM
- Km (without diethanolamine): 0.066 mM

Source: patent US5108896A, “Simultaneous immunoassay of two analytes using dual enzyme labelled antibodies” (priority 1986, dated 1992)
